The values that follow come from patent US20250223301A1, “KINASE INHIBITORS, PREPARATION METHODS AND USES THEREOF” (InventisBio Co., Ltd., priority 2022, published 2025).

As usually defined, the EC50 is the concentration that produces a half-maximal response. A higher EC50 goes with a need for much substance.

Experiment [1] concerns Jurkat cells. The experiment is described as follows: Jurkat IL-2 assay. Format: cell-based. As to conditions: Homo sapiens, anti-CD3/CD28 stimulation overnight, IL-2 level. The method, then: Jurkat cells (ATCC) were cultured in RPMI-1640 medium supplemented with 10% FBS. In a 96-well plate, −250,000 cells in 130 uL were added to each assay well. Ten microliter compound solution (5 uM to 2.3 nM, 8 points with 3-fold dilution) were added to cells in each well and incubated for 60 minutes at 37° C. Then 10 uL anti-CD3/CD28 antibody (Catalog #10991, Stemcell) were added and incubated overnight at 37° C. After the incubation, 16 uL supernatants were transferred into a new 384-well white assay plate for cytokine analysis. IL-2 was quantified using Human IL-2 kit (Catalog #62HIL02PEG, Cisbio) as described in the manufacturer manual.
(§1) X is log of compound concentration, Y is the IL-2 concentration, increasing as X increases.

The subject of experiment [2] is PBMC. The experiment is described as follows: Human PBMC IL-2 assay. Format: cell-based. To be noted: anti-CD3/CD28 stimulation overnight, IL-2 level. Here is the method:
PBMC (frozen) obtained from health donor were thawed in RPMI-1640 medium with 10% FBS and incubated for 4 h at 37° C. In a 96-well plate, −200,000 PBMC cells in 160 uL were added to each assay well. Ten microliter compound solution (10 uM to 0.6 nM, 8 points with 4-fold dilution) were added to cells in each well and incubated for 60 minutes at 37° C. Then 30 uL anti-CD3/CD28 antibody (Catalog #10991, Stemcell) were added to cells and incubated overnight at 37° C. After the incubation, 16 uL supernatants were transferred into a new 384-well white assay plate for cytokine analysis. IL-2 level was quantified using Human IL-2 kit (Catalog #62HIL02PEG, Cisbio) as described in the manufacturer manual.
as §1

For the compound `Cn1c(=O)nc(N2CCC[C@]3(CC2)CC(c2ccc(OC(F)(F)F)cc2)=NO3)c2nc(C#N)ccc21` (stereo in doubt) [Compound 139], the 50% effective concentration (EC50) was 251 nM in experiment [1] and 869 nM in experiment [2].

Take `Cn1c(=O)nc(N2CCC[C@@]3(CC2)CC(c2ccc(OC(F)(F)F)cc2)=NO3)c2nc(C#N)ccc21` (stereo in doubt) [Compound 140]: the EC50 amounted to 598 nM in experiment [1] and 259 nM in experiment [2].

Take `CC[C@@H]1CN2c3c(c(=O)n(C)c4ccc(C#N)nc34)OC[C@@H]2CN1[C@H](CC)c1ccc(C(F)(F)F)cc1F` (stereo in doubt) [Compound 143]: the EC50 turned out to be 483 nM in experiment [1] and 178 nM in experiment [2].

With `CC[C@@H]1CN2c3c(c(=O)n(C)c4ccc(C#N)nc34)OC[C@@H]2CN1[C@@H](CC)c1ccc(C(F)(F)F)cc1F` (stereo in doubt) [Compound 144], the results for the EC50 in experiment [1] and in experiment [2] were 76 nM and 61 nM, respectively.

Regarding `CC[C@@H]1CN2c3c(c(=O)n(C)c4ccc(C#N)nc34)OC[C@@H]2CN1[C@@H](CC)c1c(F)cc(F)cc1F` (stereo in doubt) [Compound 147], the EC50 was 55 nM in experiment [1] and 96 nM in experiment [2].

For the compound `CC[C@@H]1CN2c3c(c(=O)n(C)c4ccc(C#N)nc34)OC[C@@H]2CN1[C@H](CC)c1cccc(C(F)(F)F)c1` (stereo in doubt) [Compound 148], the results for the EC50 in experiment [1] and in experiment [2] were 209 nM and 582 nM, respectively.

Take `CC[C@@H]1CN2c3c(c(=O)n(C)c4ccc(C#N)nc34)OC[C@@H]2CN1[C@@H](CC)c1cccc(C(F)(F)F)c1` (stereo in doubt) [Compound 149]: the EC50 in experiment [1] came out at 76 nM; in experiment [2], 162 nM.

As for `CCC[C@@H](c1ccc(C(F)(F)F)cc1)N1C[C@H]2COc3c(c4nc(C#N)ccc4n(C)c3=O)N2C[C@H]1CC` (stereo in doubt) [Compound 153], the figures for the EC50 in experiment [1] and in experiment [2] were 43 nM and 85 nM, respectively.

Regarding `CC[C@@H]1CN2c3c(c(=O)n(C)c4ccc(C#N)nc34)OC[C@@H]2CN1[C@H](c1ccc(Cl)cc1)c1ccccn1` (stereo in doubt) [Compound 156], the EC50 amounted to 124 nM in experiment [1] and 83 nM in experiment [2].

Take `CCC[C@@H]1CN2c3c(c(=O)n(C)c4ccc(C#N)nc34)OC[C@@H]2CN1[C@H](C)c1ccc(C(F)(F)F)cc1` (stereo in doubt) [Compound 158]: the EC50 in experiment [1] was found to be 277 nM; in experiment [2] it was 579 nM.

For the compound `CC[C@@H]1CN2c3c(c(=O)n(C)c4ccc(C#N)nc34)OC[C@@H]2CN1[C@@H](c1ccc(F)cc1)c1nc(C2CC2)no1` (stereo in doubt) [Compound 159], the results for the EC50 in experiment [1] and in experiment [2] were 12 nM and 41 nM, respectively.

Turning to `CC[C@@H]1CN2c3c(c(=O)n(C)c4ccc(C#N)nc34)OC[C@@H]2CN1[C@H](c1ccc(F)cc1)c1nc(C2CC2)no1` (stereo in doubt) [Compound 160], the EC50 in experiment [1] is 21 nM; in experiment [2] it was 75 nM.

Take `CC[C@@H]1CN2c3c(c(=O)n(C)c4ccc(C#N)nc34)OC[C@@H]2CN1[C@@H](CC)c1ccc(C#N)cc1` (stereo in doubt) [Compound 161]: the EC50 in experiment [1] turned out to be 26 nM; in experiment [2] it was 53 nM.

With `CC[C@@H]1CN2c3c(c(=O)n(C)c4ccc(C#N)nc34)OC[C@@H]2CN1[C@H](CC)c1ccc(C#N)cc1` (stereo in doubt) [Compound 162], the EC50 in experiment [1] turned out to be 100 nM; in experiment [2], 786 nM.

On to `CC[C@H]1CN([C@H](c2ccc(SC(F)(F)F)cc2)C2CC2)[C@H](CC)CN1c1nc2nncn2c2ccc(C#N)nc12` (stereo in doubt) [Compound 168], for which the EC50 in experiment [1] amounted to 42 nM; in experiment [2] it was 32 nM.

Consider `CC[C@@H]1CN2c3c(c(=O)n(C)c4ccc(C#N)nc34)OC[C@@H]2CN1[C@@H](CC)c1c(F)ccc(F)c1F` (stereo in doubt) [Compound 170], for which the EC50 in experiment [1] amounted to 246 nM; in experiment [2] it was 186 nM.

For `CC[C@@H]1CN2c3c(c(=O)n(C)c4ccc(C#N)nc34)OC[C@@H]2CN1[C@@H](CC)c1ccc(F)cc1F` (stereo in doubt) [Compound 174], the EC50 in experiment [1] stood at 13 nM; in experiment [2], 25 nM.

For `CC[C@@H](c1ccc(C(F)(F)F)cc1)N1C[C@H]2COc3c(c4nc(C#N)ccc4n(C)c3=O)N2C[C@H]1C` (stereo in doubt) [Compound 179], the EC50 is 29 nM in experiment [1] and 58 nM in experiment [2].

On to `CC[C@@H]1CN2c3c(c(=O)n(C)c4ccc(C#N)nc34)OC[C@@H]2CN1[C@@H](CC)c1ccc(C(F)(F)F)cn1` (stereo in doubt) [Compound 186], for which the values for the EC50 in experiment [1] and in experiment [2] were 13 nM and 23 nM, respectively.

Regarding `CC[C@H]1CN([C@@H](CC)c2ccc(F)cc2F)[C@H](CC)CN1c1nc2nncn2c2ccc(C#N)nc12` (stereo in doubt) [Compound 194], the EC50 in experiment [1] is 104 nM; in experiment [2], 79 nM.

With `CC[C@H]1CN([C@H](CC)c2ccc(F)cc2F)[C@H](CC)CN1c1nc2nncn2c2ccc(C#N)nc12` (stereo in doubt) [Compound 195], the EC50 in experiment [1] was determined as 1110 nM; in experiment [2], 2200 nM.

On to `CC[C@@H]1CN2c3c(c(=O)n(C)c4ccc(C#N)nc34)OC[C@@H]2CN1[C@H](CC)c1ccc(F)c(Cl)c1` (stereo in doubt) [Compound 196], for which the EC50 in experiment [1] came to 1280 nM; in experiment [2], 846 nM.

Regarding `CC[C@H]1CN([C@@H](CC)c2ccc(F)c(F)c2)[C@H](CC)CN1c1nc2nncn2c2ccc(C#N)nc12` (stereo in doubt) [Compound 200], the EC50 in experiment [1] was determined as 86 nM; in experiment [2] it was 42 nM.

For `CC[C@H]1CN([C@H](CC)c2ccc(F)c(F)c2)[C@H](CC)CN1c1nc2nncn2c2ccc(C#N)nc12` (stereo in doubt) [Compound 201], the EC50 in experiment [1] came to 822 nM; in experiment [2] it was 520 nM.

As to `CC[C@H]1CN([C@H](c2ccc(C(F)(F)F)cc2)C(C)C)[C@H](CC)CN1c1nc2nncn2c2ccc(C#N)nc12` (stereo in doubt) [Compound 204], the EC50 in experiment [1] was found to be 202 nM; in experiment [2], 107 nM.

Turning to `CC[C@@H]1CN2c3c(c(=O)n(C)c4ccc(C#N)nc34)OC[C@@H]2CN1[C@@H](CC)c1ccc(C(F)(F)F)cc1Cl` (stereo in doubt) [Compound 207], the figures for the concentration for a half-maximal effect (EC50) in experiment [1] and in experiment [2] were 150 nM and 284 nM, respectively.

Turning to `CC[C@H]1CN([C@H](CC)c2c(Cl)cccc2Cl)[C@H](CC)CN1c1nc2nncn2c2ccc(C#N)nc12` (stereo in doubt) [Compound 209], the EC50 in experiment [1] came out at 1010 nM; in experiment [2], 1380 nM.

With `CC[C@@H]1CN2c3c(c(=O)n(C)c4ccc(C#N)nc34)OC[C@@H]2CN1[C@@H](CC)c1ccc(OC(F)(F)F)cc1` (stereo in doubt) [Compound 212], the EC50 in experiment [1] came out at 11 nM; in experiment [2], 39 nM.

Regarding `C[C@@H]1CN2c3c(c(=O)n(C)c4ccc(C#N)nc34)OC[C@@H]2CN1[C@H](C)c1ccc(C(F)(F)F)cc1` (stereo in doubt) [Compound 222], the EC50 was determined as 144 nM in experiment [1] and 154 nM in experiment [2].

As to `CC[C@@H]1CN2c3c(c(=O)n(CC)c4ccc(C#N)nc34)OC[C@@H]2CN1[C@@H](CC)c1ccc(C(F)(F)F)cc1` (stereo in doubt) [Compound 228], the EC50 in experiment [1] was determined as 87 nM; in experiment [2], 227 nM.

As to `CC[C@@H]1CN2c3c(c(=O)n(C)c4ccc(C#N)nc34)OC[C@@H]2CN1[C@@H](CC)c1ccc(OC)cc1F` (stereo in doubt) [Compound 232], the figures for the EC50 in experiment [1] and in experiment [2] were 47 nM and 19 nM, respectively.

Turning to `CC[C@@H]1CN2c3c(c(=O)n(C)c4ccc(C#N)nc34)OC[C@@H]2CN1[C@@H](CC)c1ccc(C(F)(F)F)cc1C` (stereo in doubt) [Compound 233], the EC50 in experiment [1] came out at 287 nM; in experiment [2], 361 nM.

In the case of `CC[C@@H]1CN2c3c(c(=O)n(C)c4ccc(C#N)nc34)OC[C@@H]2CN1[C@H](CO)c1ccc(C(F)(F)F)cc1` (stereo in doubt) [Compound 236], the EC50 in experiment [1] is 98 nM; in experiment [2], 583 nM.

In the case of `CC[C@@H](c1ccc(F)c(Cl)c1)N1C[C@H]2COc3c(c4nc(C#N)ccc4n(C)c3=O)N2C[C@H]1C` (stereo in doubt) [Compound 238], the EC50 in experiment [1] is 189 nM; in experiment [2], 78 nM.

In the case of `CC[C@@H]1CN2c3c(c(=O)n(C)c4ccc(C#N)nc34)OC[C@@H]2CN1[C@H](CC)c1c(Cl)cccc1Cl` (stereo in doubt) [Compound 239], the EC50 was 687 nM in experiment [1] and 3420 nM in experiment [2].

Take `CC[C@@H]1CN2c3c(c(=O)n(C)c4ccc(C#N)nc34)OC[C@@H]2CN1[C@@H](CC)c1c(Cl)cccc1Cl` (stereo in doubt) [Compound 240]: the half-maximal effective concentration (EC50) in experiment [1] turned out to be 242 nM; in experiment [2] it was 109 nM.

Consider `CC[C@@H]1CN2c3c(c(=O)n(C)c4ccc(C#N)nc34)OC[C@@H]2CN1[C@H](CC)c1ccc(Cl)cc1` (stereo in doubt) [Compound 243], for which the EC50 in experiment [1] is 473 nM; in experiment [2], 212 nM.

For `CC[C@@H]1CN2c3c(c(=O)n(C)c4ccc(C#N)nc34)OC[C@@H]2CN1[C@@H](CC)c1ccc(Cl)cc1` (stereo in doubt) [Compound 244], the EC50 came out at 63 nM in experiment [1] and 11 nM in experiment [2].
